Laboratory results as given in PubChem BioAssay AID1963826 (Molecular Pharmacology Branch, DTP, NCI, 2024).

Tested on: 926638-142-R-J1-PDC complex spheroid viability
Assay: Anticancer human tumor 926638-142-R-J1-PDC patient-derived endometrial carcinoma cell line growth inhibition [POLQ]
Conditions: for IC50: curve of first compound; for viability, T/C: stronger effect = lower value
Method in brief: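 Patient-derived tumour cells were co-cultured with HUVEC and mesenchymal stem cells as multicellular spheroids at 37 °C. They were treated with POLQ inhibitors (novobiocin, ART-558, RP6685) alone or combined with other agents. Top concentrations were at or near clinical Cmax (otherwise 10 microM; SN-38 at 1 microM), decreasing in half-log steps.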

[1] = second compound 0.0316 µM, first compound 0.0316 µM
[2] = second compound 0.0316 µM, first compound 0.1 µM
[3] = second compound 0.0316 µM, first compound 0.316 µM
[4] = second compound 0.0316 µM, first compound 1 µM
[5] = second compound 0.0316 µM, first compound 3.16 µM
[6] = second compound 0.0316 µM, first compound 10 µM
[7] = second compound 0.1 µM, first compound 0.0316 µM
[8] = second compound 0.1 µM, first compound 0.1 µM
[9] = second compound 0.1 µM, first compound 0.316 µM
[10] = second compound 0.1 µM, first compound 1 µM
[11] = second compound 0.1 µM, first compound 3.16 µM
[12] = second compound 0.1 µM, first compound 10 µM
[13] = second compound 0.316 µM, first compound 0.0316 µM
[14] = second compound 0.316 µM, first compound 0.1 µM
[15] = second compound 0.316 µM, first compound 0.316 µM
[16] = second compound 0.316 µM, first compound 1 µM
[17] = second compound 0.316 µM, first compound 3.16 µM
[18] = second compound 0.316 µM, first compound 10 µM
[19] = second compound 1 µM, first compound 0.0316 µM
[20] = second compound 1 µM, first compound 0.1 µM
[21] = second compound 1 µM, first compound 0.316 µM
[22] = second compound 1 µM, first compound 1 µM
[23] = second compound 1 µM, first compound 3.16 µM
[24] = second compound 1 µM, first compound 10 µM
[25] = second compound 3.16 µM, first compound 0.0316 µM
[26] = second compound 3.16 µM, first compound 0.1 µM
[27] = second compound 3.16 µM, first compound 0.316 µM
[28] = second compound 3.16 µM, first compound 1 µM
[29] = second compound 3.16 µM, first compound 3.16 µM
[30] = second compound 3.16 µM, first compound 10 µM
[31] = second compound 10 µM, first compound 0.0316 µM
[32] = second compound 10 µM, first compound 0.1 µM
[33] = second compound 10 µM, first compound 0.316 µM
[34] = second compound 10 µM, first compound 1 µM
[35] = second compound 10 µM, first compound 3.16 µM
[36] = second compound 10 µM, first compound 10 µM
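Also: spheroids exposed to drugs for one week before readout.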
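For viability, T/C in this document: percent viability relative to DMSO vehicle control wells set as 100%.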

## CC(C)n1c(=O)n(C)c2cnc3cc(F)c(-c4ccc(OCCCN5CCCCC5)nc4)cc3c21 + Nc1ccc(C#CCN(C(=O)Cc2ncc(C(F)(F)F)cc2C(F)(F)F)c2ccc(F)cc2)nn1
Second compound 0.0316 µM
  IC50: > 10000 nM
Second compound 0.1 µM
  IC50: > 10000 nM
Second compound 0.316 µM
  IC50: > 10000 nM
Second compound 1 µM
  IC50: > 10000 nM
Second compound 3.16 µM
  IC50: > 10000 nM
Second compound 10 µM
  IC50: > 10000 nM
[1]
  viability, T/C: 105%
[2]
  viability, T/C: 98%
[3]
  viability, T/C: 106%
[4]
  viability, T/C: 107%
[5]
  viability, T/C: 95%
[6]
  viability, T/C: 73.6%
[7]
  viability, T/C: 120%
[8]
  viability, T/C: 103%
[9]
  viability, T/C: 95.6%
[10]
  viability, T/C: 106%
[11]
  viability, T/C: 90.1%
[12]
  viability, T/C: 74.6%
[13]
  viability, T/C: 96.3%
[14]
  viability, T/C: 99.2%
[15]
  viability, T/C: 96%
[16]
  viability, T/C: 93.9%
[17]
  viability, T/C: 84.5%
[18]
  viability, T/C: 65.4%
[19]
  viability, T/C: 104%
[20]
  viability, T/C: 106%
[21]
  viability, T/C: 84.7%
[22]
  viability, T/C: 90%
[23]
  viability, T/C: 83%
[24]
  viability, T/C: 73.7%
[25]
  viability, T/C: 93.5%
[26]
  viability, T/C: 84.7%
[27]
  viability, T/C: 93%
[28]
  viability, T/C: 93.8%
[29]
  viability, T/C: 83.4%
[30]
  viability, T/C: 71.2%
[31]
  viability, T/C: 73.6%
[32]
  viability, T/C: 85.6%
[33]
  viability, T/C: 97.2%
[34]
  viability, T/C: 96.1%
[35]
  viability, T/C: 86.3%
[36]
  viability, T/C: 67.1%

## CC1COCCN1c1cc(C2(O)CC3CCC(C2)O3)c2cnn(-c3ccn[nH]3)c2n1 (centres undefined) + Nc1ccc(C#CCN(C(=O)Cc2ncc(C(F)(F)F)cc2C(F)(F)F)c2ccc(F)cc2)nn1
Second compound 0.0316 µM
  IC50: 197 nM
Second compound 0.1 µM
  IC50: 200 nM
Second compound 0.316 µM
  IC50: 191 nM
Second compound 1 µM
  IC50: 199 nM
Second compound 3.16 µM
  IC50: 198 nM
Second compound 10 µM
  IC50: 186 nM
[1]
  viability, T/C: 96.6%
[2]
  viability, T/C: 66.5%
[3]
  viability, T/C: 40.1%
[4]
  viability, T/C: 14.8%
[5]
  viability, T/C: 8.94%
[6]
  viability, T/C: 4.04%
[7]
  viability, T/C: 105%
[8]
  viability, T/C: 69.9%
[9]
  viability, T/C: 36.8%
[10]
  viability, T/C: 16.9%
[11]
  viability, T/C: 10.6%
[12]
  viability, T/C: 4.15%
[13]
  viability, T/C: 102%
[14]
  viability, T/C: 68.9%
[15]
  viability, T/C: 33.4%
[16]
  viability, T/C: 19.8%
[17]
  viability, T/C: 9.43%
[18]
  viability, T/C: 3.41%
[19]
  viability, T/C: 88.3%
[20]
  viability, T/C: 71%
[21]
  viability, T/C: 35.8%
[22]
  viability, T/C: 14%
[23]
  viability, T/C: 9.22%
[24]
  viability, T/C: 3.83%
[25]
  viability, T/C: 82.5%
[26]
  viability, T/C: 69%
[27]
  viability, T/C: 36.6%
[28]
  viability, T/C: 15.3%
[29]
  viability, T/C: 8.76%
[30]
  viability, T/C: 3.76%
[31]
  viability, T/C: 73.6%
[32]
  viability, T/C: 75.1%
[33]
  viability, T/C: 29.3%
[34]
  viability, T/C: 15.8%
[35]
  viability, T/C: 10.8%
[36]
  viability, T/C: 3.69%
